Measured values as given in PubChem BioAssay (NCI).
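Dose response: 5 concentrations. Exposure: 48 h. Format: 96-well plates. Endpoint: linear interpolation; highest concentration if not reached. GI50 marks 50% less growth. TGI is the concentration that stops growth completely.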

Legend:
Test in all cases: DTP human tumour cell line panel, 48 h
HL-60(TB) leukemia = system: HL-60(TB) leukemia
U251 CNS = system: U251 CNS
HCT-15 colon = system: HCT-15 colon
OVCAR-4 ovarian = system: OVCAR-4 ovarian
CAKI-1 renal = system: CAKI-1 renal
COLO 205 colon = system: COLO 205 colon
SK-OV-3 ovarian = system: SK-OV-3 ovarian
PC-3 prostate = system: PC-3 prostate
OVCAR-5 ovarian = system: OVCAR-5 ovarian
SK-MEL-5 melanoma = system: SK-MEL-5 melanoma
UO-31 renal = system: UO-31 renal
HOP-62 NSCLC = system: HOP-62 NSCLC
MDA-MB-435 = system: MDA-MB-435
MOLT-4 leukemia = system: MOLT-4 leukemia
NCI/ADR-RES ovarian = system: NCI/ADR-RES ovarian
SR leukemia = system: SR leukemia
KM12 colon = system: KM12 colon
IGROV1 ovarian = system: IGROV1 ovarian
TK-10 renal = system: TK-10 renal
MALME-3M melanoma = system: MALME-3M melanoma
RXF 393 renal = system: RXF 393 renal
EKVX NSCLC = system: EKVX NSCLC
RPMI-8226 leukemia = system: RPMI-8226 leukemia
UACC-257 melanoma = system: UACC-257 melanoma
HCT-116 colon = system: HCT-116 colon
HT29 colon = system: HT29 colon
MDA-MB-468 breast = system: MDA-MB-468 breast
MCF7 breast = system: MCF7 breast
T-47D breast = system: T-47D breast
NCI-H522 lung = system: NCI-H522 lung
A549 NSCLC = system: A549 NSCLC
M14 melanoma = system: M14 melanoma
SNB-75 CNS = system: SNB-75 CNS
MDA-MB-231 breast = system: MDA-MB-231 breast
ACHN renal = system: ACHN renal
OVCAR-3 ovarian = system: OVCAR-3 ovarian
SK-MEL-28 melanoma = system: SK-MEL-28 melanoma
786-0 renal = system: 786-0 renal
A498 renal = system: A498 renal
HCC-2998 colon = system: HCC-2998 colon
SNB-19 CNS = system: SNB-19 CNS
HS 578T breast = system: HS 578T breast
DU-145 prostate = system: DU-145 prostate
SW-620 colon = system: SW-620 colon
UACC-62 melanoma = system: UACC-62 melanoma
BT-549 breast = system: BT-549 breast
SK-MEL-2 melanoma = system: SK-MEL-2 melanoma
NCI-H23 lung = system: NCI-H23 lung
NCI-H460 lung = system: NCI-H460 lung
SF-539 CNS = system: SF-539 CNS
SF-295 CNS = system: SF-295 CNS
K-562 leukemia = system: K-562 leukemia
LOX IMVI melanoma = system: LOX IMVI melanoma
SN12C renal = system: SN12C renal
SF-268 CNS = system: SF-268 CNS
HOP-92 NSCLC = system: HOP-92 NSCLC
CCRF-CEM leukemia = system: CCRF-CEM leukemia
OVCAR-8 ovarian = system: OVCAR-8 ovarian
NCI-H226 lung = system: NCI-H226 lung

With `O=C1Nc2cc(-c3ccc(NS(=O)(=O)c4ccc(-c5ccccc5)cc4)cc3)ccc2/C1=C/c1ccc[nH]1` the GI50 (HL-60(TB) leukemia) was 7.67 µM, the TGI (HL-60(TB) leukemia) was 31.7 µM and the GI50 (U251 CNS) was 2.18 µM. For the same compound, the TGI (U251 CNS) was 5.73 µM, the GI50 (HCT-15 colon) was 2.26 µM and the TGI (HCT-15 colon) was 7.86 µM. The GI50 (OVCAR-4 ovarian) was 2.1 µM, the TGI (OVCAR-4 ovarian) was 11.9 µM and the GI50 (CAKI-1 renal) was 5.64 µM. It also gave a TGI (CAKI-1 renal) of 18.4 µM, a GI50 (COLO 205 colon) of 3.7 µM and a TGI (COLO 205 colon) of 14 µM. The GI50 (SK-OV-3 ovarian) was 13.3 µM, the TGI (SK-OV-3 ovarian) was 26 µM and the GI50 (PC-3 prostate) was 3.27 µM. For the same compound, the TGI (PC-3 prostate) was 18.1 µM, the GI50 (OVCAR-5 ovarian) was 3.42 µM and the TGI (OVCAR-5 ovarian) was 14.3 µM. For the same compound, the GI50 (SK-MEL-5 melanoma) was 6.91 µM, the TGI (SK-MEL-5 melanoma) was 21.8 µM and the GI50 (UO-31 renal) was 10.7 µM. For the same compound, the TGI (UO-31 renal) was 29.1 µM, the GI50 (HOP-62 NSCLC) was 8.59 µM and the TGI (HOP-62 NSCLC) was 21.8 µM. The GI50 (MDA-MB-435) was 5.71 µM, the TGI (MDA-MB-435) was 21 µM and the GI50 (MOLT-4 leukemia) was 3.88 µM. For the same compound, the TGI (MOLT-4 leukemia) was 17.7 µM, the GI50 (NCI/ADR-RES ovarian) was 6.29 µM and the TGI (NCI/ADR-RES ovarian) was 30.9 µM. The GI50 (SR leukemia) was 1.9 µM, the TGI (SR leukemia) was 10.9 µM and the GI50 (KM12 colon) was 2.48 µM. For the same compound, the TGI (KM12 colon) was 18.7 µM, the GI50 (IGROV1 ovarian) was 8.34 µM and the TGI (IGROV1 ovarian) was 22.2 µM. For the same compound, the GI50 (TK-10 renal) was 2.66 µM, the TGI (TK-10 renal) was 11 µM and the GI50 (MALME-3M melanoma) was 2.79 µM. The TGI (MALME-3M melanoma) was 9.7 µM, the GI50 (RXF 393 renal) was 2.48 µM and the TGI (RXF 393 renal) was 5.56 µM. For the same compound, the GI50 (EKVX NSCLC) was 0.225 µM, the TGI (EKVX NSCLC) was 8.94 µM and the GI50 (RPMI-8226 leukemia) was 3.09 µM. For the same compound, the TGI (RPMI-8226 leukemia) was 15.7 µM, the GI50 (UACC-257 melanoma) was 5.84 µM and the TGI (UACC-257 melanoma) was 20.4 µM. The GI50 (HCT-116 colon) was 3.28 µM, the TGI (HCT-116 colon) was 11.2 µM and the GI50 (HT29 colon) was 2.42 µM. The TGI (HT29 colon) was 6.71 µM, the GI50 (MDA-MB-468 breast) was 0.0402 µM and the TGI (MDA-MB-468 breast) was 1.04 µM. It also gave a GI50 (MCF7 breast) of 0.0746 µM, a TGI (MCF7 breast) of 1.54 µM and a GI50 (T-47D breast) of 0.136 µM. The TGI (T-47D breast) was 3.57 µM, the GI50 (NCI-H522 lung) was 2.27 µM and the TGI (NCI-H522 lung) was 7.94 µM. It also gave a GI50 (A549 NSCLC) of 1.82 µM, a TGI (A549 NSCLC) of 4.86 µM and a GI50 (M14 melanoma) of 4.7 µM. For the same compound, the TGI (M14 melanoma) was 16.8 µM, the GI50 (SNB-75 CNS) was 12.8 µM and the TGI (SNB-75 CNS) was 35.6 µM. It also gave a GI50 (MDA-MB-231 breast) of 2.96 µM, a TGI (MDA-MB-231 breast) of 11.6 µM and a GI50 (ACHN renal) of 6.16 µM. For the same compound, the TGI (ACHN renal) was 18.7 µM, the GI50 (OVCAR-3 ovarian) was 1.94 µM and the TGI (OVCAR-3 ovarian) was 4.65 µM. It also gave a GI50 (SK-MEL-28 melanoma) of 3.77 µM, a TGI (SK-MEL-28 melanoma) of 13.5 µM and a GI50 (786-0 renal) of 3.91 µM. For the same compound, the TGI (786-0 renal) was 13.9 µM, the GI50 (A498 renal) was 12.6 µM and the TGI (A498 renal) was 25.1 µM. It also gave a GI50 (HCC-2998 colon) of 4.88 µM, a TGI (HCC-2998 colon) of 28.4 µM and a GI50 (SNB-19 CNS) of 5.91 µM. It also gave a TGI (SNB-19 CNS) of 18.7 µM, a GI50 (HS 578T breast) of 12.2 µM and a TGI (HS 578T breast) of 56.7 µM. For the same compound, the GI50 (DU-145 prostate) was 2.09 µM, the TGI (DU-145 prostate) was 4.59 µM and the GI50 (SW-620 colon) was 2.45 µM. The TGI (SW-620 colon) was 6.56 µM, the GI50 (UACC-62 melanoma) was 5.37 µM and the TGI (UACC-62 melanoma) was 19.7 µM. It also gave a GI50 (BT-549 breast) of 2.49 µM, a TGI (BT-549 breast) of 7.75 µM and a GI50 (SK-MEL-2 melanoma) of 11.8 µM. It also gave a TGI (SK-MEL-2 melanoma) of 24.4 µM, a GI50 (NCI-H23 lung) of 1.2 µM and a TGI (NCI-H23 lung) of 5.91 µM. It also gave a GI50 (NCI-H460 lung) of 0.351 µM, a TGI (NCI-H460 lung) of 2.13 µM and a GI50 (SF-539 CNS) of 3.66 µM. It also gave a TGI (SF-539 CNS) of 14.7 µM, a GI50 (SF-295 CNS) of 7.29 µM and a TGI (SF-295 CNS) of 19.8 µM. The GI50 (K-562 leukemia) was 3.8 µM, the TGI (K-562 leukemia) was 16.6 µM and the GI50 (LOX IMVI melanoma) was 2.59 µM. For the same compound, the TGI (LOX IMVI melanoma) was 6.82 µM, the GI50 (SN12C renal) was 3.07 µM and the TGI (SN12C renal) was 12 µM. The GI50 (SF-268 CNS) was 4.26 µM, the TGI (SF-268 CNS) was 16.3 µM and the GI50 (HOP-92 NSCLC) was 2.2 µM. For the same compound, the TGI (HOP-92 NSCLC) was 7.22 µM, the GI50 (CCRF-CEM leukemia) was 5.82 µM and the TGI (CCRF-CEM leukemia) was 18.6 µM. It also gave a GI50 (OVCAR-8 ovarian) of 3.45 µM, a TGI (OVCAR-8 ovarian) of 12.2 µM and a GI50 (NCI-H226 lung) of 1.9 µM. The TGI (NCI-H226 lung) was 14.8 µM.
